{"source": "paper PMC6522510", "about": "(Nature Communications, 2019)", "key": {"CHRF288-11 [1]": {"test_system": "CHRF288-11", "assay_type": "cell-based", "details": "Homo sapiens, 72 h"}, "CMS [2]": {"test_system": "CMS", "assay_type": "cell-based", "details": "Homo sapiens, 72 h, read-out: IC50 CMS"}, "[3]": {"test_system": "CHRF288-11-luciferase/YFP+ xenograft", "experiment": "In vivo efficacy, survival", "parameters": "species or system NSG mice", "details": "CHRF288-11 xenograft, 60 mg kg−1 twice daily for 5 days up to 4 weeks, oral gavage"}, "[4]": {"test_system": "AMKL patient-derived xenograft", "experiment": "In vivo efficacy, survival", "parameters": "species or system NSG-SGM3 mice", "details": "AMKL PDX, 60 mg kg−1 twice daily for 5 days up to 4 weeks, oral gavage"}, "[5]": {"experiment": "Pharmacokinetics of ruxolitinib, single oral dose, plasma LC-MS/MS", "assay_type": "in vivo, mice", "details": "mouse, 60 mg kg−1 oral gavage", "method": "Data are mean ± standard error (SE) (N = 5 per gender). Concentration-time data were analyzed by non-compartmental analysis and pharmacokinetic parameters were calculated in WinNonLin. c–e, top Kaplan–Meier analysis of animal survival in c CHRF288–11-luciferase/YFP+ xenograft, d CBFA2T3-GLIS2/JAK2V617F-induced AMKL quaternary transplants, and e AMKL patient-derived xenograft.\nAnimal studies were performed under protocols approved by the Institutional Animal Care and Use Committee at OSU. […] Serial blood collection was performed from 15 min up to 240 min after dose administration."}, "[6]": {"test_system": "CBFA2T3-GLIS2/JAK2V617F tertiary transplant leukemic blasts", "assay_type": "cell-based, mouse"}, "WSU": {"test_system": "WSU", "experiment": "cells", "details": "Homo sapiens, 72 h, read-out: IC50 (WSU)"}, "M-MOK": {"test_system": "M-MOK", "experiment": "cells"}, "CMY": {"test_system": "CMY", "experiment": "cells"}, "CMK [7]": {"test_system": "CMK", "experiment": "cells"}, "M07e [8]": {"test_system": "M07e", "experiment": "cells"}, "MKPL": {"test_system": "MKPL", "experiment": "cells"}, "Meg-01": {"test_system": "Meg-01", "experiment": "cells"}, "CHRF288-11 [9]": {"test_system": "CHRF288-11", "experiment": "Primary HTS, single concentration, Cell Titer Glo", "assay_type": "cell-based, human", "details": "approximately 10 µM, 72 h, relative to positive control"}, "CMK [10]": {"test_system": "CMK", "experiment": "Primary HTS, single concentration, Cell Titer Glo", "assay_type": "cell-based, human", "details": "approximately 10 µM, 72 h, relative to positive control"}, "CMS [11]": {"test_system": "CMS", "experiment": "Primary HTS, single concentration, Cell Titer Glo", "assay_type": "cell-based, human", "details": "approximately 10 µM, 72 h, relative to positive control"}, "M07e [12]": {"test_system": "M07e", "experiment": "Primary HTS, single concentration, Cell Titer Glo", "assay_type": "cell-based, human", "details": "approximately 10 µM, 72 h, relative to positive control"}, "ML-2": {"test_system": "ML-2", "experiment": "Primary HTS, single concentration, Cell Titer Glo", "assay_type": "cell-based, human", "details": "approximately 10 µM, 72 h, relative to positive control"}, "MOLM-13": {"test_system": "MOLM-13", "experiment": "Primary HTS, single concentration, Cell Titer Glo", "assay_type": "cell-based, human", "details": "approximately 10 µM, 72 h, relative to positive control"}, "MV4-11": {"test_system": "MV4-11", "experiment": "Primary HTS, single concentration, Cell Titer Glo", "assay_type": "cell-based, human", "details": "approximately 10 µM, 72 h, relative to positive control"}, "U937 [13]": {"test_system": "U937", "experiment": "Primary HTS, single concentration, Cell Titer Glo", "assay_type": "cell-based, human", "details": "approximately 10 µM, 72 h, relative to positive control"}, "CHRF288-11 [14]": {"test_system": "CHRF288-11", "experiment": "Secondary dose-response HTS, Cell Titer Glo", "assay_type": "cell-based, human", "details": "secondary HTS, 72 h, average of triplicate; read-out: EC50 CHRF288-11"}, "CMK [15]": {"test_system": "CMK", "experiment": "Secondary dose-response HTS, Cell Titer Glo", "assay_type": "cell-based, human", "details": "secondary HTS, 72 h, average of triplicate; read-out: EC50 CMK"}, "CMS [16]": {"test_system": "CMS", "experiment": "Secondary dose-response HTS, Cell Titer Glo", "assay_type": "cell-based, human", "details": "secondary HTS, 72 h, average of triplicate; read-out: EC50 CMS"}, "U937 [17]": {"test_system": "U937", "experiment": "Secondary dose-response HTS, Cell Titer Glo", "assay_type": "cell-based, human", "details": "secondary HTS, 72 h, average of triplicate; read-out: EC50 U937"}, "[18]": {"test_system": "Mll PTD/wt:Flt3 ITD/ITD double knock-in primary transplant blasts (bone marrow, spleen)", "experiment": "Accumulation in primary murine blasts", "assay_type": "cell-based, mouse", "details": "blasts from bone marrow or spleen", "method": "Cells were washed twice with ice-cold PBS; cell pellets were solubilized in 400 µL 1 N NaOH and agitated (300 rpm) at room temperature for 2 h. Then samples were neutralized with […] 1 M HCl; a 25 µL aliquot of lysate was used to estimate protein concentration using a Pierce BCA protein assay kit (Thermo Scientific). Total radioactivity was measured by a Tri-Carb 4810TR liquid scintillation counter (Perkin-Elmer) after mixing the sample with 4 mL of Emulsifier Safe (Perkin Elmer); the results were normalized to total protein content as measured by a Pierce BCA protein assay kit. Three independent experiments were performed in triplicate.\nBone marrow and splenocytes were isolated from mice transplanted with dKI AML and CG-V617 AMKL. Following red blood cells lysis, dKI AML leukemic blasts from vehicle treated mice were evaluated for accumulation of cytarabine and gemcitabine using the uptake assay described above.\nSupplementary Figure 5. Accumulation of cytarabine and gemcitabine .\nunlabeled and [3H]-cytarabine (Ara- C) or gemcitabine ( Gem ). Intracellular Ara- C, Gem ,\nscintillation counting and normalized to protein levels. Representative chromatogram for\nas disintegrations per minute (DPM) over complete run time. (c) Percentage of total\nindependent experiments (N=9). (d) Accumulation was determined in cell lysate of bone\ndouble knock-in primary transplant recipient. […]"}, "[19]": {"parameters": "method as in Wang et al., Biol Blood Marrow Transplant 2014 and others", "details": "higher cellular concentrations; ref Wang et al., Biol Blood Marrow Transplant 2014 and others; cited from earlier work"}, "AML cell lines": {"test_system": "AML cell lines", "experiment": "Intracellular drug and phosphorylated metabolites by HPLC with liquid scintillation counting", "details": "2 h, 1 µM"}}, "note": "Like-named read-outs stand apart in the source and are kept apart here.", "data": [{"smiles": "N#CC[C@H](C1CCCC1)n1cc(-c2ncnc3[nH]ccc23)cn1", "note": "[Ruxolitinib, ruxolitinib]", "values": [{"measurement": "IC50", "setting": "CHRF288-11 [1]; read-out: IC50, ruxolitinib + BMP2, CHRF288-11, 72 h, with 100 ng mL−1 BMP2", "result": 103, "unit": "nM"}, {"measurement": "IC50", "setting": "CHRF288-11 [1]; read-out: IC50, ruxolitinib + EPO, CHRF288-11, 72 h, with 100 ng mL−1 EPO", "result": 142, "unit": "nM"}, {"measurement": "IC50", "setting": "CHRF288-11 [1]; read-out: IC50, ruxolitinib + TPO, CHRF288-11, 72 h, with 100 ng mL−1 TPO", "result": 480, "unit": "nM"}, {"measurement": "IC50", "setting": "CHRF288-11 [1]; read-out: IC50, ruxolitinib alone (Fig. 6g), CHRF288-11, 72 h, without cytokine", "result": 119, "unit": "nM"}, {"measurement": "IC50", "setting": "CHRF288-11 [1]; read-out: IC50 CHRF288-11, 72 h, Cell Titer Glo", "result": 143, "unit": "nM"}, {"measurement": "IC50", "setting": "CMS [2]", "result": 64, "unit": "nM"}, {"measurement": "Median survival", "setting": "[3]", "result": 31, "unit": "days"}, {"measurement": "Median survival", "setting": "[4]", "result": 43, "unit": "days"}, {"measurement": "AUC(0-t)", "setting": "[5]; BoyJ, Female", "result": "16.8 ± 10.8", "unit": "µM·h"}, {"measurement": "Cmax", "setting": "[5]; BoyJ, Female", "result": "18.1 ± 10.6", "unit": "µM"}, {"measurement": "Tmax", "setting": "[5]; BoyJ, Female", "result": 0.25, "unit": "h"}, {"measurement": "half-life", "setting": "[5]; BoyJ, Female", "result": "2.03 ± 1.1", "unit": "h"}, {"measurement": "AUC(0-t)", "setting": "[5]; BoyJ, Male", "result": "17.9 ± 6.5", "unit": "µM·h"}, {"measurement": "Cmax", "setting": "[5]; BoyJ, Male", "result": "28.6 ± 10.6", "unit": "µM"}, {"measurement": "Tmax", "setting": "[5]; BoyJ, Male", "result": 0.25, "unit": "h"}, {"measurement": "half-life", "setting": "[5]; BoyJ, Male", "result": "2.64 ± 1.74", "unit": "h"}, {"measurement": "AUC(0-t)", "setting": "[5]; NSG, Female", "result": "4.8 ± 0.6", "unit": "µM·h"}, {"measurement": "Cmax", "setting": "[5]; NSG, Female", "result": "6.9 ± 1.7", "unit": "µM"}, {"measurement": "Tmax", "setting": "[5]; NSG, Female", "result": 0.25, "unit": "h"}, {"measurement": "half-life", "setting": "[5]; NSG, Female", "result": "1.26 ± 0.48", "unit": "h"}, {"measurement": "AUC(0-t)", "setting": "[5]; NSG, Male", "result": "4.1 ± 0.6", "unit": "µM·h"}, {"measurement": "Cmax", "setting": "[5]; NSG, Male", "result": "5.5 ± 1.7", "unit": "µM"}, {"measurement": "Tmax", "setting": "[5]; NSG, Male", "result": 0.25, "unit": "h"}, {"measurement": "half-life", "setting": "[5]; NSG, Male", "result": "1.32 ± 0.74", "unit": "h"}, {"measurement": "sensitivity of primary murine blasts", "setting": "[6]", "result": "sensitive"}, {"measurement": "IC50", "setting": "WSU", "result": 8.7, "unit": "nM"}, {"measurement": "IC50", "setting": "M-MOK", "result": 6.4, "unit": "nM"}, {"measurement": "IC50", "setting": "CMY", "result": 49, "unit": "nM"}, {"measurement": "IC50", "setting": "CMK [7]", "result": 142, "unit": "nM"}, {"measurement": "IC50", "setting": "M07e [8]", "result": 45, "unit": "nM"}, {"measurement": "IC50", "setting": "MKPL", "result": 6300, "unit": "nM"}, {"measurement": "IC50", "setting": "Meg-01", "result": "> 10000", "unit": "nM"}]}, {"smiles": "CC(/C=C/C(=O)NO)=C\\[C@@H](C)C(=O)c1ccc(N(C)C)cc1", "note": "[Trichostatin A]", "values": [{"measurement": "CHRF288-11 %inh", "setting": "CHRF288-11 [9]", "result": 190, "unit": "%"}, {"measurement": "CMK %inh", "setting": "CMK [10]", "result": 137, "unit": "%"}, {"measurement": "CMS %inh", "setting": "CMS [11]", "result": 111, "unit": "%"}, {"measurement": "M07e %inh", "setting": "M07e [12]", "result": 147, "unit": "%"}, {"measurement": "ML-2 %inh", "setting": "ML-2", "result": 60, "unit": "%"}, {"measurement": "MOLM-13 %inh", "setting": "MOLM-13", "result": 98, "unit": "%"}, {"measurement": "MV4-11 %inh", "setting": "MV4-11", "result": 81, "unit": "%"}, {"measurement": "U937 %inh", "setting": "U937 [13]", "result": 83, "unit": "%"}, {"measurement": "EC50", "setting": "CHRF288-11 [14]", "result": 40, "unit": "nM"}, {"measurement": "EC50", "setting": "CMK [15]", "result": 50, "unit": "nM"}, {"measurement": "EC50", "setting": "CMS [16]", "result": 40, "unit": "nM"}, {"measurement": "EC50", "setting": "U937 [17]", "result": 40, "unit": "nM"}]}, {"smiles": "Nc1ccn([C@@H]2O[C@H](COP(=O)(O)OP(=O)(O)OP(=O)(O)O)[C@@H](O)C2(F)F)c(=O)n1", "note": "[dFdCTP, gemcitabine triphosphate]", "values": [{"measurement": "accumulation of dFdCTP versus Ara-CTP", "setting": "[18]", "result": "2.4–5.3 fold"}, {"measurement": "cellular elimination half-life (biphasic)", "setting": "[19]", "result": "15 to 24", "unit": "h"}, {"measurement": "accumulation of dFdCTP compared to Ara-CTP", "setting": "AML cell lines; AML cell lines", "result": "7.3–61.2 fold"}, {"measurement": "share of the total intracellular accumulation", "setting": "AML cell lines; all cell lines evaluated", "result": "58–81%"}]}]}
